Reference: PMC6767265, “Cytotoxicity and Apoptosis Induction of Coumarins and Carbazole Alkaloids from Clausena Harmandiana” (Molecules, 2019)
Several values for one entry are separate records, joined by “and”; a condition that tells them apart may be missing. Equal entries are not always repeated. Marks after values point to notes of the source that are not given here.

Columns and labels:
[1] = tested on: noncancerous African green monkey kidney epithelial cell line (Vero); test: Cell viability assay (neutral red), Vero; type: cell-based; details: Chlorocebus sabaeus, Vero, 24 h, inactive = viability >50% at >100 µM
Procedure: (§1) The human lung adenocarcinoma cell line (SK-LU-1), human colon carcinoma cell line (HCT116), human hepatocellular carcinoma cell line (HepG2) and noncancerous African green monkey kidney epithelial cell line (Vero) were cultured in Dulbecco’s modified Eagle’s medium (DMEM) supplemented with 10% fetal bovine serum, 100 IU/mL penicillin and […] streptomycin. Cells were incubated at 37 °C with 95% air and 5% CO2 until they reached approximately 80% confluence before use.
(§2) Cell viability assay was assessed by neutral red (NR). Briefly, cells at a density of 3 × 10^4 cells/well were seeded in 96-wells plate and incubated for 24 h. The sample at concentration, ranging from 10 to 500 µM, were added and incubated for 24 h. After incubation time, cells were washed with PBS. NR reagent (50 µg/mL) was added to each well and incubated for another 2 h. After that, cells were washed with PBS and lyzed with 0.33% HCl in isopropanol. Cisplatin was used as a positive control. The absorbance of NR was detected using microplate reader (Tecan, Lyon, France) at 520 nm. The percentage of cell viability was calculated vis-à-vis the untreated cells and cytotoxicity was expressed as the inhibition concentration at 50% (IC50). The final DMSO concentration was not exceed 0.1%v/v to lessen the cytotoxicity (<10%).

[2] = tested on: human colon carcinoma cell line (HCT116); test: Cell viability assay (neutral red), HCT116; type: cell-based
Procedure: as §1
as §2, with “The sample at concentration, ranging from 10 to 500 µM, were added and incubated for 24 h.” left out

[3] = tested on: human hepatocellular carcinoma cell line (HepG2); test: Cell viability assay (neutral red), HepG2; type: cell-based
Procedure: as §1, §2

[4] = DPPH radical scavenging assay; type: biochemical
Procedure: The 2,2–diphenyl–1–picrylhydrazyl (DPPH) radical scavenging assay was conducted as per the previous method. Briefly, the stock solutions of 10 mM DPPH was prepared in methanol. The DPPH was mixed with samples (100 µL each) at various concentrations (1−500 µM) in 96 wells plate and incubated for 30 min in a dark condition. The absorbance of DPPH radical was measured at 517 nm using a microplate reader (Tecan, Lyon, France). Trolox was used as a positive control. The half maximum inhibitory concentration (IC50 value) was calculated from the plot of percentage of DDPH radical inhibition versus concentration of samples using the following formula: % DPPH radical inhibition = [(Ab − As)/Ab] × 100,(1) where Ab = absorbance of the reagent blank, and As = absorbance of the sample. Each experiment was done in five replications and results are expressed as average values.

[5] = tested on: human lung adenocarcinoma cell line (SK-LU-1); test: Cell viability assay (neutral red), SK-LU-1; type: cell-based
Procedure: as §1
as §2, with “The sample at concentration, ranging from 10 to 500 µM, were added and incubated for 24 h.” left out

[6] = Ferric reducing antioxidant power (FRAP) assay; type: biochemical; details: 100 µM compound
Procedure: FRAP assay was performed following the pervious study with slight modification. FRAP reagent was prepared by mixing 300 mM acetate buffer (pH 3.6), 20 mM ferric chloride solution and 10 mM TPTZ solution in the ratio of 10:1:1 and incubated at 37 °C for 30 min. Then, 150 µL of FRAP reagent was added with 50 µL of the sample (100 µM of isolated compounds or 100 µg/mL of the CH2Cl2 crude extract) in each well of the 96-wells plate. The absorbance was measured at 595 nm using microplate reader (Tecan, Lyon, France). Trolox was used as a positive control. The FRAP value was calculated from the linear equation between the absorbance and ferrous sulfate standard curves (y = 0.0548x + 0.0213, R^2 = 0.9989) and expressed as µM of ferrous sulfate equivalents.

HepG2 cells = test: Mode of cell death by Annexin V-FITC/PI staining, flow cytometry; type: cell-based, human
Excerpt: In this study, double staining of cells by Annexin V-FITC/propidium iodide (PI) was used to differentiate apoptosis from necrosis. The stages of apoptosis can be distinguished from necrotic cell death by flow cytometry using Annexin V-FITC/PI double staining of HepG2 cells. During the early stages of apoptosis, the phosphatidylserine comprising the cell membrane will externalize to be exposed to the surface of apoptotic cells and bind with Annexin V-FITC, showing a cell dot plot in Quadrant 4. The cell dot plot is positively stained with Annexin V-FITC but negatively stained with PI (+/−). When cells are damaged or undergo a late state of apoptosis, cells will lose their membrane integrity, including nuclear membrane integrity, so that PI can pass through the nuclear membrane, showing a cell dot plot in Quadrant 2. […] During cell undergo necrotic cell death, cells are stained and appear in Quadrant 1 (−/+). Normal cells are not stained and appear in Quadrant 3 (−/−). The total apoptotic cell death percentage was counted from the percentage of cells undergoing an early state and late state of apoptosis gathering from Quadrants 4 and 2, while the necrotic cell death percentage was counted from Quadrant 1, as shown in Figure 2.
The Annexin V-FITC and PI apoptosis assay kit (BioLegend, San Diego, CA, USA) was used to determine mode of cell death as per previous report. The HepG2 cells (8 × 10^5 cell/mL) were seeded in a 24-well plate and incubated for 24 h. The compounds at a concentration of 1 x IC50 and 2 x IC50 were added and incubated for 12 and 24 h. After that, cells were washed with PBS and cold BioLegend’s cell staining buffer followed by staining with Annexin V-FITC and PI and cell were incubated in the dark for 15 min. The cells were analyzed by flow cytometry (BD FACSCanto II, BD Biosciences, San Jose, CA, USA) and the percentage of cells in different populations were calculated with FACSDiva software.

[7] = cancer cells over noncancerous Vero cells
[8] = 30 min in the dark, absorbance 517 nm

Compound: C=CC(C)(C)c1cc2c(O)c3c(c(C(C)(C)C=C)c2oc1=O)OC(C)(C)C=C3 [Clausarin (2), clausarin]
- IC50 [1]: 78.2 ± 3 µM
- IC50 ([2]; Homo sapiens, HCT-116, 24 h, neutral red, inactive = viability >50% at >100 µM): 44.9 ± 1.4 µM
- Selectivity Index HCT116 [2, 7]: (1.7)
- IC50 ([3]; Homo sapiens, HepG2, 24 h, neutral red): 17.6 ± 2.1 µM
- Selectivity Index HepG2 [3, 7]: (4.4)
- DPPH Assay IC50 [4, 8]: 2.3 ± 0.3^a µg/mL
- IC50 [4, 8]: 6 ± 0.8 µM
- DPPH radical scavenging activity classification ([4]; classified from IC50 in µg/mL): high radical scavenger
- IC50 ([5]; Homo sapiens, SK-LU-1, 24 h, neutral red, inactive = viability >50% at >100 µM): 6.9 ± 1.6 µM
- Selectivity Index SK-LU-1 [5, 7]: (11.3)
- FRAP Value [6]: 45.2 ± 1.0^b µM FeSO4 Equivalents
- FRAP Value ([6]; listed as clausarin): 45.2 ± 1.0 µM FeSO4 Equivalents and 45.2 µM FeSO4 Equivalents
- apoptotic cell death percentage (total, Quadrants 4 and 2) (HepG2 cells; HepG2, 1 × IC50, 12 h): 44.0 ± 1.2%
- necrotic cell death percentage (Q1, Annexin V-FITC/PI −/+) (HepG2 cells; HepG2, 1 × IC50, 12 h): 6.8 ± 1.4%
- necrotic cell death percentage (Q1, Annexin V-FITC/PI −/+) (HepG2 cells; HepG2, 2 × IC50, 12 h): 27.4 ± 3.8%
